# Test results: patent US3963707A, “Novel N-nitroso compounds, compositions containing such compounds, processes for their preparation and methods of treatment therewith, and novel intermediates” (Aktiebolaget Leo, priority 1973, dated 1976)
# Where two headings read alike, the source gives them in different places.
# What was measured:
# [1] = Ehrlich ascites tumour test (LD50, ED50, therapeutic index); format: in vivo, SPF NMRI mice; conditions: mouse, in vivo, ip; one injection i.p., mice; dose causing 50 percent lethality
# Method in brief: (§1)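 SPF NMRI mice implanted i.p. with 2 × 10^6 Ehrlich ascites (ELD hyperdiploid) cells and given a single i.p. dose the next day; killed on day 8. ED50 = dose halving tumour weight versus controls, LD50 = dose lethal to 50%; T.I. = LD50/ED50.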
# [2] = test system: Ehrlich ascites tumour, ELD hyperdiploid (46 chromosomes); assay: as above; format: in vivo, SPF NMRI mice; conditions: for T.I. (LD50/ED50): Ehrlich ascites, mice, i.p.; for ED50: Mus musculus, Ehrlich, ip; for anti-tumor activity: additional compounds, result in words
# Method in brief: as §1
# [3] = in vivo; design: species or system SPF Wistar rats; conditions: rat, in vivo, ip; one injection i.p., rats; dose causing 50 percent lethality
# Method in brief: (§2)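 Therapeutic index (LD50/ED50) was derived from tumour weight against controls at day-8 sacrifice, with ED50 the dose giving 50% tumour reduction. Rats (SPF Wistar) bore 5 × 10^6 hepatoma cells implanted intraperitoneally. A single i.p. injection followed on the day after implantation.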
# [4] = test system: Hepatoma AH 130; assay: animal or person; design: species or system SPF Wistar rats; conditions: for ED50: Rattus norvegicus, ip, 192 h, one injection i.p. day after implantation, dose causing 50 percent reduction of tumour size; for T.I. (LD50/ED50): Hepatoma AH 130, rats, i.p.
# Method in brief: as §2
# [5] = test system: Lymphatic leukemia L 1210; assay: Lymphatic leukemia L 1210 test; format: in vivo, CDF1 (C3H×DBA/2)F1 mice; conditions: for Effect %: survival time as percentage of control; for Weight change v: vs control up to the 5th day; for effect on L 1210: result in words, dose not given
# Text: (§3) The experimental design and the interpretation of the results have been in accordance with the standards set by the CCNSC (Cancer Chemotherapy Reports, January 1959 and December 1962), and by the DR&D (Cancer Chemotherapy Reports, September 1972, Vol. 3, No. 2).
# (§4) The way of administration is by the intraperitoneal route (i.p.) in each case.
# Lymphatic leukemia L 1210
# Experimental animals: CDF1 (C3H×DBA/2)F1 mice.
# Tumour implant: 10^5 tumour cells i.p.
# Therapy: One injection i.p. on the day following implantation.
# Evaluation: a) The survival time of the test animals (t) expressed as the percentage of that of control animals (c).
# b. Weight change in the test animals (T) compared with that of the control animals (c) up to the 5th day.
# c. The mortality rate must not exceed 35% in the test animals on the 5th day of therapy.
# [6] = test system: Walker carcinosarcoma 256; assay: Walker carcinosarcoma 256 test; format: in vivo, Sprague Dawley rats; conditions: for Lethality: died/used animals
# Text: as §3, §4
# Walker carcinosarcoma 256
# Experimental animals: Sprague Dawley rats.
# Tumour implant: Tumour pieces with 2-4 mm diameter, subcutaneously.
# Therapy: Daily injections i.p. for 5 days starting on the day following implantation.
# Termination: The animals are killed on the 9th day.
# Evaluation: Weights of tumours of test animals are compared with those of control animals. The differences, in per cent of weights of tumours of control animals, give per cent tumour inhibition.
# The lethality is given as the number of animals which died in the experiment/the number of animals used in the experiments.
# [7] = acute intraperitoneal toxicity in mice; cited from earlier work
# [8] = test system: utering weight; assay: Estrogenic effect in immature female mice; format: in vivo; conditions: for estrogenic activity, 17β-estradiol and its 3-acetate compared with each other: same kind of experiment
# Experimental: The androgenic and estrogenic activities, as described below, are determined with established methods (see e.g. Dorfman, R.: Methods in Hormone Research, vol. II, Acad. Press, New York and London 1962, pp. 93 and 275).
# The estrogenic effect is assayed in immature female mice. The animals receive the compounds once daily for three consecutive days, and on the 4th day the utering weight is determined.
# [9] = one injection i.p. day after implantation, dose causing 50 percent reduction of tumour size, read-out: ED50
structure (smiles),measurement,setting,value
"O=C(O)CCCc1ccc(N(CCCl)CCCl)cc1 [Chlorambucil, reference compound]",LD50,[1],33 mg/kg
"C1CN1c1nc(N2CC2)nc(N2CC2)n1 [Triethylene-melamine, reference compound]",T.I. (LD50/ED50),[2],2.6
same,ED50,[2]; [9],1.03 mg/kg
same,LD50,[1],2.7 mg/kg
C[C@]12CCC(=O)C[C@@H]1CC[C@@H]1[C@@H]2CC[C@]2(C)[C@@H](OC(=O)N(CCCl)N=O)CC[C@@H]12 [dihydrotestosterone-17β-N-(2-chloroethyl)-N-nitroso carbamate],anti-tumor activity,[2],exhibit anti-tumor activity
same,LD50,[3],> 1000 mg/kg
same,ED50,[4],1 mg/kg
same,Mortality,[5]; 1×125 mg/kg i.p.,0/20
same,Effect %,[5]; 1×125 mg/kg i.p.,135%
same,Weight change v,[5]; 1×125 mg/kg i.p.,-0.9 g
same,Tumour inhibition %,[6]; 5×250 mg/kg i.p.,51%
same,Lethality,[6]; 5×250 mg/kg i.p.,0/8
O=NN(CCCl)C(=O)Oc1ccc2ccccc2c1 [β-Naphthyl],LD50,[7],42 mg/kg
CC(=O)Oc1ccc2c(c1)CC[C@@H]1[C@@H]2CC[C@]2(C)[C@@H](OC(=O)N(CCCl)N=O)CC[C@@H]12 [estradiol-3-acetate-17β-N-(2-chloroethyl)-N-nitroso carbamate],anti-tumor activity,[2],exhibit anti-tumor activity
same,LD50,[3],> 1000 mg/kg
same,T.I. (LD50/ED50),[4],> 10
same,ED50,[4],96 mg/kg
same,estrogenic effect compared with 17β-estradiol and 17β-estradiol-3-acetate,"[8]; given orally, subcutanously or intraperitoneally",about 10 times weaker
same,Tumour inhibition %,[6]; 5×250 mg/kg i.p.,74%
same,Lethality,[6]; 5×250 mg/kg i.p.,1/8
"C[C@]12CC[C@@H]3c4ccc(O)cc4CC[C@H]3[C@@H]1CC[C@@H]2O [17β-estradiol, estra-1,3,5(10)-triene-3,17β-diol]","estrogenic activity, 17β-estradiol and its 3-acetate compared with each other",[8],about the same estrogenic activity
CC(=O)Oc1ccc2c(c1)CC[C@@H]1[C@@H]2CC[C@]2(C)[C@@H](O)CC[C@@H]12 [17β-estradiol-3-acetate],"estrogenic activity, 17β-estradiol and its 3-acetate compared with each other",[8],about the same estrogenic activity
"O=P1(N(CCCl)CCCl)NCCCO1 (stereo not drawn) [Cyclofosfamid, reference compound]",T.I. (LD50/ED50),[2],7.6
same,ED50,[2],62 mg/kg
same,LD50,[1],470 mg/kg
"S=P(N1CC1)(N1CC1)N1CC1 [Triethylene-thiophosphoramide, reference compound]",T.I. (LD50/ED50),[2],1.5
same,ED50,[2]; [9],15 mg/kg
same,LD50,[1],22 mg/kg
C[C@]12CC[C@H]3[C@@H](CCC4=CC(=O)CC[C@@H]43)[C@@H]1CC[C@@H]2OC(=O)N(CCCl)N=O [19-nortestosterone-17β-N-(2-chloroethyl)-N-nitroso carbamate],anti-tumor activity,[2],exhibit anti-tumor activity
same,LD50,[3],150 mg/kg
same,T.I. (LD50/ED50),[4],300
same,ED50,[4],0.5 mg/kg
same,Mortality,[5]; 1×31 mg/kg i.p.,0/40
same,Effect %,[5]; 1×31 mg/kg i.p.,142%
same,Weight change v,[5]; 1×31 mg/kg i.p.,-1.0 g
same,Tumour inhibition %,[6]; 5×63 mg/kg i.p.,65%
same,Lethality,[6]; 5×63 mg/kg i.p.,1/8
"C[C@]12CC[C@@H](OC(=O)N(CCCl)N=O)C[C@@H]1CC[C@@H]1[C@@H]2CC[C@]2(C)[C@@H](OC(=O)N(CCCl)N=O)CC[C@@H]12 [androstanediol-3α,17β-bis/N-(2-chloroethyl)-N-nitroso carbamate/]",anti-tumor activity,[2],exhibit anti-tumor activity
same,LD50,[3],> 1000 mg/kg
same,ED50,[4],1 mg/kg
same,effect on L 1210,[5],show a significant effect
same,Tumour inhibition %,[6]; 5×250 mg/kg i.p.,75%
same,Lethality,[6]; 5×250 mg/kg i.p.,1/8
O=NN(CCCl)C(=O)Oc1ccccc1 [Phenyl],LD50,[7],3 to 7 mg/kg
C[C@]12CC[C@@H]3c4ccc(OC(=O)N(CCCl)N=O)cc4CC[C@H]3[C@@H]1CCC2=O [estrone-3-N-(2-chloroethyl)-N-nitroso carbamate],anti-tumor activity,[2],exhibit anti-tumor activity
same,LD50,[3],> 1000 mg/kg
same,T.I. (LD50/ED50),[4],> 2.000
same,ED50,[4],0.5 mg/kg
same,effect on L 1210,[5],show a significant effect
same,Tumour inhibition %,[6]; 5×125 mg/kg i.p.,75%
same,Lethality,[6]; 5×125 mg/kg i.p.,0/8
CC(=O)[C@H]1CC[C@H]2[C@@H]3CC=C4C[C@@H](OC(=O)N(CCCl)N=O)CC[C@]4(C)[C@H]3CC[C@]12C [pregnenolone-3β-N-(2-chloroethyl)-N-nitroso carbamate],anti-tumor activity,[2],exhibit anti-tumor activity
same,LD50,[3],> 1000 mg/kg
same,T.I. (LD50/ED50),[4],> 526
same,ED50,[4],1.9 mg/kg
same,Mortality,[5]; 1×500 mg/kg i.p.,0/20
same,Effect %,[5]; 1×500 mg/kg i.p.,136%
same,Weight change v,[5]; 1×500 mg/kg i.p.,-0.8 g
same,Tumour inhibition %,[6]; 5×500 mg/kg i.p.,55%
same,Lethality,[6]; 5×500 mg/kg i.p.,0/8
C[C@]12CC[C@@H](OC(=O)N(CCCl)N=O)C[C@@H]1CC[C@@H]1[C@@H]2CC[C@]2(C)C(=O)CC[C@@H]12 [androsterone-3α-N-(2-chloroethyl)-N-nitroso carbamate],anti-tumor activity,[2],exhibit anti-tumor activity
same,LD50,[3],> 1000 mg/kg
same,T.I. (LD50/ED50),[4],> 100
same,ED50,[4],10 mg/kg
same,Mortality,[5]; 1×125 mg/kg i.p.,0/20
same,Effect %,[5]; 1×125 mg/kg i.p.,153%
same,Weight change v,[5]; 1×125 mg/kg i.p.,-2.4 g
same,Tumour inhibition %,[6]; 5×250 mg/kg i.p.,82%
same,Lethality,[6]; 5×250 mg/kg i.p.,0/8
C[C@]12CC[C@@H]3c4ccc(OC(=O)N(CCCl)N=O)cc4CC[C@H]3[C@@H]1CC[C@@H]2O [17β-estradiol-3-N-(2-chloroethyl)-N-nitroso carbamate],anti-tumor activity,[2],exhibit anti-tumor activity
same,LD50,[3],> 1000 mg/kg
same,T.I. (LD50/ED50),[4],> 4.000
same,ED50,[4],< 0.25 mg/kg
same,Tumour inhibition %,[6]; 5×31 mg/kg i.p.,86%
same,Lethality,[6]; 5×31 mg/kg i.p.,0/8
C[C@]12CC[C@H](OC(=O)N(CCCl)N=O)C[C@@H]1CC[C@@H]1[C@@H]2CC[C@]2(C)C(=O)CC[C@@H]12 [epiandrosterone-3β-N-(2-chloroethyl)-N-nitroso carbamate],anti-tumor activity,[2],exhibit anti-tumor activity
same,LD50,[3],> 1000 mg/kg
same,T.I. (LD50/ED50),[4],> 5.000
same,ED50,[4],0.2 mg/kg
same,Mortality,[5]; 1×250 mg/kg i.p.,0/20
same,Effect %,[5]; 1×250 mg/kg i.p.,130%
same,Weight change v,[5]; 1×250 mg/kg i.p.,-1.6 g
same,Tumour inhibition %,[6]; 5×125 mg/kg i.p.,47%
same,Lethality,[6]; 5×125 mg/kg i.p.,0/8
CCCCOC(=O)N(CCCl)N=O [CH3 (CH2)2 CH2 --],LD50,[7],11 to 15 mg/kg
CC(=O)O[C@H]1CC[C@@]2(C)C(=CC[C@H]3[C@@H]4CC[C@H](OC(=O)N(CCCl)N=O)[C@@]4(C)CC[C@@H]32)C1 [androstenediol-3β-acetate-17β-N-(2-chloroethyl)-N-nitroso carbamate],anti-tumor activity,[2],exhibit anti-tumor activity
same,LD50,[3],> 250 mg/kg
same,ED50,[4],0.25 mg/kg
same,Tumour inhibition %,[6]; 5×125 mg/kg i.p.,41%
same,Lethality,[6]; 5×125 mg/kg i.p.,0/8
"CS(=O)(=O)OCCCCOS(C)(=O)=O [Busulfan, reference compound]",T.I. (LD50/ED50),[2],1.3
same,ED50,[2]; [9],55 mg/kg
same,LD50,[1],71 mg/kg
C[C@]12CC[C@@H]3c4ccc(OC(=O)c5ccccc5)cc4CC[C@H]3[C@@H]1CC[C@@H]2OC(=O)N(CCCl)N=O [estradiol-3-benzoate-17β-N-(2-chloroethyl)-N-nitroso carbamate],anti-tumor activity,[2],exhibit anti-tumor activity
same,LD50,[3],> 1000 mg/kg
same,T.I. (LD50/ED50),[4],> 16
same,ED50,[4],< 63 mg/kg
same,Tumour inhibition %,[6]; 5×125 mg/kg i.p.,73%
same,Lethality,[6]; 5×125 mg/kg i.p.,0/8
COc1ccc2c(c1)CC[C@@H]1[C@@H]2CC[C@]2(C)[C@@H](OC(=O)N(CCCl)N=O)CC[C@@H]12 [estradiol-3-methylether-17β-N-(2-chloroethyl)-N-nitroso carbamate],anti-tumor activity,[2],exhibit anti-tumor activity
same,LD50,[3],> 1000 mg/kg
same,T.I. (LD50/ED50),[4],> 2.000
same,ED50,[4],0.5 mg/kg
same,Tumour inhibition %,[6]; 5×250 mg/kg i.p.,66%
same,Lethality,[6]; 5×250 mg/kg i.p.,0/8
